Results reported in publication PMC12299903 (Pharmaceuticals, 2025).
≈ marks a conversion by molar mass, not a printed value. Entries after “also recorded” stand apart in the source; their conditions may differ. One block for each compound: values may come before it. Where a SMILES comes first, the peptide text is derived from it. Where no end group is shown, it is not given here.

What was measured:
[1] = tested on: trypsin; test: Proteolytic degradation by trypsin (HPLC); type: in vitro ADME; details: trypsin 1:50 (w/w), 100 µM peptide, 20 mM Tris-HCl pH 8.0, 37 °C, time points 1 min to 4 h; for time to complete degradation by trypsin: HPLC-UV; for time after which progressive degradation (cleavage fragment peaks) is observed with trypsin: HPLC-UV of filtered supernatant
Description: Lunatin–AAAE and EAAA–lunatin and their nanoparticle-functionalized counterparts (NP-Lun-EN and NP-Lun-EC) were suspended in 20 mM Tris-HCl buffer (pH 8.0) at a final peptide concentration of 100 µM and exposed to enzymatic digestion with trypsin at 37 °C, using an enzyme-to-substrate ratio of 1:50 (w/w) in a final volume of 1000 µL. Incubation was performed using an AccuBlock™ Digital Dry Bath (Ciencor),. Aliquots of 200 µL were withdrawn at different time points (1 min, 5 min, 10 min, 30 min, 1 h, 2 h, 3 h, and 4 h), and enzymatic activity was quenched by adding 40 µL of 1 M HCl. Samples were centrifugated and supernatant filtered in whatman® alumina anodisc filter discs 0.02 μm pore size, previously injected in a high-performance liquid chromatography system (Varian® ProStar 315 system equipped with a UV detector), using an Agilent AdvanceBio Peptide Mapping column (4.6 × 150 mm), and 50 µL injection loop.

[2] = tested on: Staphylococcus aureus; test: Bacterial cell death kinetics (time-kill); type: cell-based; details: S. aureus in MH broth, 10^5 CFU·mL^−1, tested at 0.5×, 2×, 4× MIC over 12 h, triplicate
Description: Bacterial time-kill assays were performed in triplicate, following the methodology of ref. [43] with minor modifications. Staphylococcus aureus was cultured in Mueller–Hinton (MH) broth at an initial concentration of […] and exposed to free peptides and peptide-functionalized nanobiostructures at concentrations corresponding to 0.5×, 1×, 2×, and 4× the MIC (minimum inhibitory concentration). Samples were collected at defined time intervals: 0, 0.5, 1, 2, 4, 6, 8, 10, and 12 h. Cell viability was assessed using the microdrop method described by Romeiro (2001). Serial dilutions of the bacterial suspensions (10^−1, 10^−2, and 10^−3) were prepared, and 5 µL aliquots from each dilution were plated onto brain–heart infusion (BHI) agar. Plates were incubated for up to 12 h, after which colony counts were performed. The number of colony-forming units (UFC) was calculated by multiplying the colony count by the reciprocal of the dilution factor, and results were expressed as UFC·mL^−1. This approach provided quantitative data on the time–dependent bactericidal activity of both the free peptides and nanoparticle-conjugated formulations.

[3] = tested on: Acinetobacter (ATCC17978); test: Antibacterial assay, MIC (broth microdilution, resazurin); type: cell-based; details: Mueller-Hinton broth, CLSI M07-A9, 1:2 serial dilution from 128.5 μM, 37 °C 20 h, resazurin read-out, triplicate; conjugates dosed as peptide concentration
Description: (§1) The peptide Lun-1 and the peptide-conjugated nanoparticles (Lun-EN and Lun-EC) were investigated against […] bacterial strains—Pseudomonas aeruginosa, Staphylococcus aureus, Acinetobacter, Escherichia coli, and Streptococcus agalactiae, all from American Type Culture Collection (Manassas, VA, USA). Details can be found in the SM. […]
(§2) phase at 35 °C and subsequently transferred to Mueller-Hinton broth according to the guidelines established by the M07 -A9 CLSI. Methods for the dilution antimicrobial susceptibility tests for b acteria that grow aerobically were from the Approved Standard—Ninth Edition. CLSI document M07 -A9. Wayne, PA: Clinical and Laboratory Standards Institute; 2012. Bacterial suspensions were adjusted to the turbidity equivalent to 0.5 McFarland standard ([…]), by spectrophotometric measurement at 625 nm (Bel Photonics S2000 UV, São Paulo, Brazil).
(§3) The suspension was then diluted 1:20, and 50 μL aliquots were distributed into 96-well flat-bottom microplates (Nümbrecht, Germany).
(§4) Chloramphenicol (30 μg·mL⁻¹; 92.8 μM) was used as standard drug and served as positive control for growth bacterial inhibition. Wells containing 50 μL of bacterial inoculum and 50 μL of sterile culture medium were used as negative controls. Free peptides were tested at a maximum concentration of 128.5 μM and diluted via serial dilution (1:2) up to seven times in Mueller–Hinton broth. For the nanoparticle– peptide conjugations concentration s were adjusted according to the degree of functionalization to ensure accurate dosing of the active peptide component.
(§5) Plates were incubated at 37 °C for 20 hours. After incubation, 30 μL of a 0.01% (w/v) resazurin solution (10-oxido -7 -oxophenoxazin-10 -ium -3 -olate; Sigma -Aldrich, St. Louis, MO, USA) was added to each well. Plates were protected from light and incubated for an additional 4 hours to allow colorimetric development. The tests whose bacteria did not develop a pink color after incubation (maintaining the blue coloration) were […]

[4] = tested on: Pseudomonas aeruginosa (ATCC27853); test: as above; type: cell-based; details: Mueller-Hinton broth, CLSI M07-A9, 1:2 serial dilution from 128.5 μM, 37 °C 20 h, resazurin read-out, triplicate; conjugates dosed as peptide concentration
Description: as §1, §2, §3, §4, §5

[5] = tested on: Streptococcus agalactiae (ATCC 29313); test: as above; type: cell-based; details: Mueller-Hinton broth, CLSI M07-A9, 1:2 serial dilution from 128.5 μM, 37 °C 20 h, resazurin read-out, triplicate; conjugates dosed as peptide concentration
Description: as §1, §2, §3, §4, §5

[6] = tested on: Escherichia coli (ATCC25922); test: as above; type: cell-based; details: Mueller-Hinton broth, CLSI M07-A9, 1:2 serial dilution from 128.5 μM, 37 °C 20 h, resazurin read-out, triplicate; conjugates dosed as peptide concentration
Description: as §1, §2, §3, §4, §5

[7] = tested on: Staphylococcus aureus (ATCC29213); test: as above; type: cell-based; details: Mueller-Hinton broth, CLSI M07-A9, 1:2 serial dilution from 128.5 μM, 37 °C 20 h, resazurin read-out, triplicate; conjugates dosed as peptide concentration
Description: as §1, §2, §3, §4, §5

[8] = Zeta potential; type: physicochemical; details: 0.2 mg·mL^−1 in 10 mM Tris-HCl, pH 8.0, 100 mM NaCl; 25 °C; mean of triplicate ± SD
Description: Zeta potential and Hydrodynamic Diameter measurements were performed at room temperature (or 25 °C) on a Zetasizer Nano instrument (Malvern® ZS model BI-900, Worcestershire, UK). A 700 µL Malvern® cuvette (model DTS1061) was used for the analysis. The measurements were conducted, utilizing monochromatic light scattering (10 mW Ne laser, λ = 632.4 nm), with the light intensity measured at a 90° angle. Zeta potential (z) were carried out at 0.2 mg·mL^−1 of NP, NP-OH, NP-NH2, NP-Lun-EN, and NP-Lun-EC dispersed in a 10 mM Tris-HCl buffer, pH 8.0, containing 100 mM NaCl.

[9] = Circular dichroism, secondary structure content; type: physicochemical; details: 10 mM Tris-HCl, 100 mM NaCl, pH 8.5, 25 µM peptide, 25 °C; for a-helical percentage (CD deconvolution) / β-sheet percentage (CD deconvolution): in buffer, CDpro; for α-helix content (CD deconvolution): in presence of 200 µM POPC:POPG (3:1) LUVs
Description: Circular dichroism spectra were recorded using a JASCO J-815 spectrometer (Easton, MD, USA) equipped with a Peltier Jasco model PTC-423 L temperature control system. Spectra were obtained using a quartz cuvette with a 1 cm optical path at a temperature of 25 °C, covering a wavelength range from 190 to 260 nm with eight consecutive scans per sample. The scan speed was set at 100 nm/min and the response time was 4 s. The bandwidth was 1 nm, and ellipticity readings were taken every 0.2 nm. The Lun-1 (25 µM), NP (0.155 mg·mL^−1), NP-Lun-EN (0.17 mg·mL^−1–25 µM of peptide concentration), and NP-Lun-EC (0.18 mg·mL^−1–25 µM of peptide concentration) samples were (corresponding to 25 µM of peptide in NP-Lun-EN and NP-Lun-EC) suspended in 10 mM Tris-HCl buffer solution at pH 8.5 containing 100 mM NaCl or in 200 µM POPC:POPG (3:1, mol:mol) LUVs suspended in the same buffer solution. Data processing and deconvolution calculations to obtain the contents of secondary structures were carried out using the CDpro® program.

[10] = Differential scanning calorimetry of model membranes; details: for Tm of LUVs: 3 mM DMPC:DMPG (3:1) LUVs, 10 mM Tris-HCl pH 7.5, pure LUVs 23.1, triplicate, ± 0.2 °C
Description: The phase transition profile of 1,2-dimyristoyl-sn-glycero-3-phosphocholine and 1,2-dimyristoyl-sn-glycero-3-phosphocholine/1,2-dimyristoyl-sn-glycero-3-phosphoglycerol (DMPC:DMPG. 3:1, mol:mol) at 3 mM was investigated in the absence and presence of Lun-1, NP, NP-Lun-EN, and NP-Lun-EC at different concentrations (Table S1, using a VP-DSC® microcalorimeter (Malvern® Instruments, Malvern, UK). All mixtures of LUVs and peptide–LUVs were prepared immediately prior to the experiments. The samples were pre-degassed and tested against a 10 mM Tris-HCl buffer (pH 7.5) containing 50 mM NaCl in the reference cell. Buffer-only experiments were also performed in all cells for subsequent background subtraction. Each sample underwent three successive heating scans in the temperature range of 10–35 °C at a heating rate of 1.0 °C.min^−1. Data analyses were performed using Microcal Origin® DSC software version 5.0 (GE HealthCare-Microcal®, Amherst, MA, USA), which was employed to subtract the blank and determine the transition temperature (Tm) and transition enthalpy (DtransH) from the gel phase to the liquid crystalline phase.

[11] = tested on: trypsin; test: trypsin in 20 mM Tris-HCl buffer (pH 8.0); details: 37 °C, up to 4 h

Compound: CC[C@H](C)[C@H](NC(=O)[C@H](Cc1ccccc1)NC(=O)[C@H](C)NC(=O)[C@H](C)NC(=O)[C@H](C)NC(=O)[C@@H](N)CCC(=O)O)C(=O)NCC(=O)NCC(=O)N[C@@H](CC(C)C)C(=O)N[C@@H](CC(C)C)C(=O)N[C@@H](CCCCN)C(=O)N[C@H](C(=O)N[C@@H](CC(C)C)C(=O)N[C@H](C(=O)N[C@@H](CO)C(=O)N[C@@H](Cc1ccccc1)C(=O)N[C@@H](Cc1ccccc1)C(N)=O)[C@@H](C)O)[C@@H](C)O [Lun-EN] (H-EAAAFIGGLLKTLTSFF-NH2)
time to complete degradation by trypsin [1]: 10 min

Compound: NP-NtermEAAA-Lun-1 [NP-Lun-EN]
concentrations giving sustained reduction in viable cells without regrowth [2]: 2 × MIC and 4 × MIC
MIC [3]: did not exhibit activity
MIC [4]: did not exhibit activity
MIC [5]: 128.5 µM
MIC [6]: 128.5 µM
MIC [7]: 64.2 µM
time after which progressive degradation (cleavage fragment peaks) is observed with trypsin [1]: 2 h
ζ-potential [8]: +6.7 ± 0.9 mV
a-helical percentage (CD deconvolution) [9]: 35%
β-sheet percentage (CD deconvolution) [9]: 45%
α-helix content (CD deconvolution) [9]: 40%
Tm of LUVs ([10]; 10 µM peptide): 22.9 °C
Tm of LUVs ([10]; 25 µM peptide): 22.9 °C
Tm of LUVs ([10]; 50 µM peptide): 22.9 °C
Tm of LUVs ([10]; 100 µM peptide): 21.9 °C

Compound: Lun-1-AAAECterm-NP [NP-Lun-EC]
MIC [3]: 40.0 µM
MIC [4]: 32.1 µM
MIC [5]: 16.0 µM
MIC [6]: 48.0 µM
MIC [7]: 16.0 µM
time after which progressive degradation (cleavage fragment peaks) is observed with trypsin [1]: 2 h
ζ-potential [8]: +5.8 ± 0.8 mV
a-helical percentage (CD deconvolution) [9]: 30%
β-sheet percentage (CD deconvolution) [9]: 40%
α-helix content (CD deconvolution) [9]: 55%
Tm of LUVs ([10]; 10 µM peptide): 22.7 °C
Tm of LUVs ([10]; 25 µM peptide): 22.0/22.0 °C
Tm of LUVs ([10]; 50 µM peptide): 21.1 °C
Tm of LUVs ([10]; 100 µM peptide): 19.8 °C
lowering of transition temperature (DTm) ([10]; DMPC:DMPG (3:1) LUVs, versus pure LUVs): 3.3 °C

Compound: CC[C@H](C)[C@H](NC(=O)[C@@H](N)Cc1ccccc1)C(=O)NCC(=O)NCC(=O)N[C@@H](CC(C)C)C(=O)N[C@@H](CC(C)C)C(=O)N[C@@H](CCCCN)C(=O)N[C@H](C(=O)N[C@@H](CC(C)C)C(=O)N[C@H](C(=O)N[C@@H](CO)C(=O)N[C@@H](Cc1ccccc1)C(=O)N[C@@H](Cc1ccccc1)C(=O)N[C@@H](C)C(=O)N[C@@H](C)C(=O)N[C@@H](C)C(=O)N[C@@H](CCC(=O)O)C(N)=O)[C@@H](C)O)[C@@H](C)O [Lun-EC] (H-FIGGLLKTLTSFFAAAE-NH2)
time to complete degradation by trypsin [1]: 10 min

Compound: EAAAFIGGLLKTLTSFF-NH2 [Lun-EN]
fragment found [11]: TLTSFF, 1 min; also recorded: EAAAFIGGLLK, 1 min

Compound: CC[C@H](C)[C@H](NC(=O)[C@@H](N)Cc1ccccc1)C(=O)NCC(=O)NCC(=O)N[C@@H](CC(C)C)C(=O)N[C@@H](CC(C)C)C(=O)N[C@@H](CCCCN)C(=O)N[C@H](C(=O)N[C@@H](CC(C)C)C(=O)N[C@H](C(=O)N[C@@H](CO)C(=O)N[C@@H](Cc1ccccc1)C(=O)N[C@@H](Cc1ccccc1)C(N)=O)[C@@H](C)O)[C@@H](C)O [Lun-1, lunatin-1] (H-FIGGLLKTLTSFF-NH2)
MIC [3]: 32.1 µM (≈ 46.3 µg/mL)
MIC [4]: 32.1 µM (≈ 46.3 µg/mL)
MIC [5]: 16.0 µM (≈ 23.1 µg/mL)
MIC [6]: 64.2 µM (≈ 92.6 µg/mL)
MIC [7]: 8.0 µM (≈ 11.5 µg/mL)

Compound: FIGGLLKTLTSFFAAAE-NH2 [Lun-EC]
fragment found [11]: FIGGLLK, 1 min; also recorded: TLTSFFAAAE, 1 min

fragment found [11]: TLTSFF, 2 h
Compound: EAAAFIGGLLKTLTSFF-NH2 [NP-Lun-EN]

fragment found [11]: FIGGLLK, 2 h
Compound: FIGGLLKTLTSFFAAAE-NH2 [NP-Lun-EC]
